Results taken from patent publication US12226433B2, “Treatment of irritable bowel syndrome with molybdenum” (The Johns Hopkins University, priority 2018, dated 2025).

What was measured:
[1] = tested on: IBS mouse model; test: Visceral motor reflex (VMR) response to colorectal distention (CRD), pain sensitivity in IBS mouse model; type: in vivo; settings: 0.2 ml sodium molybdate (10 mg/ml) cecal infusion for 7 days; for pain sensitivity (hyperalgesia) assessed by VMR response to CRD: IBS mice, CRD 15, 30, 50 and 70 mmHg, vs IBS-vehicle, P<0.05
Procedure: (§1) IBS mice were generated by colorectal infusion of 0.5% acetic acid (20 μl) at postnatal day 10. The mice were then allowed to grow up until adult. The adult IBS and control mice were undergone a surgery to insert a catheter into the cecum. The catheter made from PE10 tubing with 8 cm long. It was insert into cecum about 0.5 cm and then tunneled to the back of the mouse after sutured on the cecum wall ensuring no cecum content leaking. Then, a pair of electrodes were inserted into the external oblique (abdominal) muscle for pain sensitivity test. The mice received 0.2 ml sodium molybdate (10 mg/ml) through cecal infusion starting on the day after surgery for 7 days. One day after the last infusion, a visceral motor reflex (VMR) response to colorectal distention (CRD) was conducted to assess the pain sensitivity. A balloon was inserted into colorectum through the anus for CRD. The VMR is measured using an electromyographic (EMG) recording that response to CRD with 15, 30, 50 and 70 mmHg. To assess the microbiota, stool were collected before and after the molybdate treatment. Microbiome were examined by 16S rRNA sequencing.

[2] = tested on: Desulfovibrio; test: Stool microbiome examined by 16S rRNA sequencing before and after molybdate treatment; type: in vivo, mouse; settings: molybdate treated control and IBS groups; stool before and after 7 days of cecal infusion; not reduced in saline treated groups
Procedure: as §1

Which results are given for `[Na+].[Na+].[O]=[Mo](=[O])([O-])[O-]` [sodium molybdate]?
pain sensitivity (hyperalgesia) assessed by VMR response to CRD [1]: reduced hyperalgesia; pain sensitivity (hyperalgesia) assessed by VMR response to CRD ([1]; listed as molybdate): significantly reduced; pain sensitivity assessed by VMR response to CRD ([1]; control mice, molybdate vs saline treated): no significant different; sulfate-reducing bacteria Desulfovibrio in stool (16S rRNA sequencing) [2]: reduced
